According to patent publication US7160898B2, “Pharmacological treatment for sleep apnea” (Board of Trustees of The University of Illinois, priority 2002, dated 2007):

Tests used:
[1] = tested on: 5-hydroxytryptamine receptors; conditions: anesthetized animals, cited from earlier work; for apnea after intravenous administration: duration increased dose-dependently
sleep apnea syndrome = conditions: cited from earlier work; for effect in patients with sleep apnea: literature reports
[2] = tested on: animal model of sleep apnea; conditions: U.S. Pat. No. 5,075,290; cited from earlier work
RR, VE, mean BP, HP = experiment: Respiratory pattern, BP and HP after serotonin and GR38032F (Example 3); assay type: in vivo, rat (Sprague-Dawley)
Protocol: Similar software (Experimenters' Workbench; Datawave Technologies, Longmont, Colo.) was employed to analyze the blood pressure waveform; for each beat of each recording, systolic (SBP) and diastolic (DBP) blood pressures and pulse interval were measured. The pulse interval provided a beat by beat estimate of HP. Mean BP (MBP) was estimated according to the weighted average of SBP and DBP for each beat: MBP=DBP+(SBP−DBP)/3. The parameters for each beat were also classified according to the sleep/wake state and recording hour during which they occurred.
(§1) Each animal was recorded on four occasions, with recordings for an individual animal separated by at least three days. Fifteen minutes prior to each recording, each animal received (via intraperitoneal injection), in random order, one of the following: (a) saline solution (control); (b) 0.79 mg/kg serotonin; (c) 0.1 mg/kg GR38032F plus 0.79 mg/kg serotonin; or (d) 0.1 mg/kg GR38032F. For the GR38032F+serotonin test group, 0.1 mg/kg GR38032F was administered at time 09:30 followed by 0.79 mg/kg serotonin at time 09:45. Polygraphic recordings were made from 10:00–16:00.
(§2) Respiration BP, EEG, and EMG data were determined and recorded via the experimental procedure as specifically set forth above in Example 2. As in Example 2, sleep apneas, defined as cessation of respiratory effort for at least 2.5 s, were scored for each recording session and were associated with the stage in which they occurred: NREM or REM sleep. The duration requirement of 2.5 s represents at least two “missed” breaths, which is analogous to a 10-s apnea duration requirement in humans.
The effects of sleep stage (NREM vs REM) and injection (control vs. administration of either serotonin alone, GR38032F+serotonin, or GR38032F alone) on apnea indexes, respiratory pattern, BP, and HP were tested using analysis of variance (ANOVA) with repeated measures. Multiple comparisons were controlled using Fisher's protected least-significance difference (PLSD). One-way ANOVA was also performed by nonparametric (Kruskal-Wallis) analysis. […]

[3] = tested on: spontaneous sleep-related central apneas; experiment: Induction and suppression of sleep apneas by serotonin and GR38032F (Example 3); assay type: in vivo, rat (Sprague-Dawley); conditions: 6 hour recording
Protocol: Ten adult male Sprague-Dawley rats (Sasco-King, Wilmington, Mass.; 300 g) were maintained on a 12-h light (08:00–20:00 hour)/12-hour dark (20:00–08:00) cycle for one week, housed in individual cages, and given ad libitum access to food and water. Following the one week of acclimatization, animals were prepared for physiological testing via the surgical procedures (i.e., implantation of cortical electrodes for EEG recording and neck muscle electrodes for EMG recording, implantation of a radiotelemetry transmitter for BP and HP monitoring) as set forth above in Example 1. After completion of the surgical procedures, animals were allowed a one week recovery period prior to use in the present study. Each animal was recorded on four occasions, with recordings for an individual animal separated by at least three days. Fifteen minutes prior to each recording, each animal received (via intraperitoneal injection), in random order, one of the following: (a) saline solution (control); (b) 0.79 mg/kg serotonin; (c) 0.1 mg/kg GR38032F plus 0.79 mg/kg serotonin; or (d) 0.1 mg/kg GR38032F. For the GR38032F+serotonin test group, 0.1 mg/kg GR38032F was administered at time 09:30 followed by 0.79 mg/kg serotonin at time 09:45. Polygraphic recordings were made from 10:00–16:00. Respiration BP, EEG, and EMG data were determined and recorded via the experimental procedure as specifically set forth above in Example 2. As in Example 2, sleep apneas, defined as cessation of respiratory effort for at least 2.5 s, were scored for each recording session and were associated with the stage in which they occurred: NREM or REM sleep. The duration requirement of 2.5 s represents at least two “missed” breaths, which is analogous to a 10-s apnea duration requirement in humans. The effects of sleep stage (NREM vs REM) and injection (control vs. administration of either serotonin alone, GR38032F+serotonin, or GR38032F alone) on apnea indexes, respiratory pattern, BP, and HP were tested using analysis of variance (ANOVA) with repeated measures. Multiple comparisons were controlled using Fisher's protected least-significance difference (PLSD). One-way ANOVA was also performed by nonparametric (Kruskal-Wallis) analysis. Conclusions using parametric and nonparametric ANOVA were identical in all cases.

sleep/wake architecture = experiment: Sleep/wake architecture after 5-HT and GR38032F (Example 3); assay type: in vivo, rat (Sprague-Dawley); conditions: i.p.
Protocol: Sleep and waking states were assessed using the biparietal EEG and nuchal EMG signals on 10-second epochs as described by Bennington et al. [Sleep, 17:28–36 (1994)]. This software discriminated wakefulness (W) as a high frequency low amplitude EEG with a concomitant high EMG tone, NREM sleep by increased spindle and […] activity together with decreased EMG tone, and REM sleep by a […] activity and an absence of EMG tone. Sleep efficiency was measured as the percentage of total recorded epochs staged as NREM or REM sleep.
as §1, §2
The effects of sleep stage (NREM vs REM) and injection (control vs. administration of either serotonin alone, GR38032F+serotonin, or GR38032F alone) on apnea indexes, respiratory pattern, BP, and HP were tested using analysis of variance (ANOVA) with repeated measures. Multiple comparisons were controlled using Fisher's protected least-significance difference (PLSD). One-way ANOVA was also performed by nonparametric (Kruskal-Wallis) analysis. Conclusions using parametric and nonparametric ANOVA were identical in all cases.

[4] = percent recording time, 6 hours, 5-HT 0.79 mg/kg, GR38032F 0.1 mg/kg, mean ± SE

## Cc1[nH]c2ccc(O)cc2c1CCN [2-methyl-5-hydroxytryptamine]
[1]
  apnea after intravenous administration: produced transient apnea

## N[C@@H](Cc1c[nH]c2ccccc12)C(=O)O [L-tryptophan]
Sleep apnea syndrome
  effect in patients with sleep apnea: may have a beneficial effect on sleep apnea syndrome

## CNCCCC1c2ccccc2C=Cc2ccccc21 [Protriptyline]
Sleep apnea syndrome
  effect in patients with sleep apnea: variable results and frequent and significant side effects

## CC(N)Cc1c[nH]c2ccc(O)cc12 (centres unmarked) [a-methyl-5-hydroxytryptamine]
[1]
  apnea after intravenous administration: produced transient apnea

## CC(=O)Nc1nnc(S(N)(=O)=O)s1 [acetazolamide]
Sleep apnea syndrome
  effect in patients with sleep apnea: variable improvement in individuals with primary central apneas but caused an increase in obstructive apneas

## Nc1ncnc2c1ncn2[C@@H]1O[C@H](CO)[C@@H](O)[C@H]1O [adenosine]
[2]
  reduction of apnea: somewhat effective in reducing apnea

## O=C1CC2(CCCC2)CC(=O)N1CCCCN1CCN(c2ncccn2)CC1 [buspirone]
Sleep apnea syndrome; Mendelson et al. 1991
  patients with sleep apnea syndrome with reduced apnea index: 4 of 5
Sleep apnea syndrome
  effect in patients with sleep apnea: eliminate post-surgical apneustic breathing in one child

## CCN1CC(CCN2CCOCC2)C(c2ccccc2)(c2ccccc2)C1=O (centres unmarked) [doxapram]
Sleep apnea syndrome
  effect in patients with sleep apnea: decrease the length of apneas but did not alter the average arterial oxygen saturation

## CNCCC(Oc1ccc(C(F)(F)F)cc1)c1ccccc1 (centres unmarked) [fluoxetine]
Sleep apnea syndrome
  effect in patients with sleep apnea: benefit some but not all patients with sleep apnea syndrome

## O=C(c1ccc(F)cc1)C1CCN(CCn2c(=O)[nH]c3ccccc3c2=O)CC1 [ketanserine]
[1]
  antagonism of agonist-induced transient apnea: significantly antagonized

## CC[C@@H](CO)NC(=O)[C@@H]1C=C2c3cccc4c3c(cn4C)C[C@H]2N(C)C1 [methysergide]
[1]
  antagonism of agonist-induced transient apnea: significantly antagonized

## C=CCN1CC[C@]23c4c5ccc(O)c4O[C@H]2C(=O)CC[C@@]3(O)[C@H]1C5 [naloxone]
Sleep apnea syndrome
  effect in patients with sleep apnea: only slightly helpful

## Fc1ccc([C@@H]2CCNC[C@H]2COc2ccc3c(c2)OCO3)cc1 [paroxetine]
Sleep apnea syndrome
  effect in patients with sleep apnea: benefit some but not all patients with sleep apnea syndrome

## NCCc1c[nH]c2ccc(O)cc12 [serotonin, 5-hydroxytryptamine]
[1]
  apnea after intravenous administration: produced transient apnea
RR, VE, mean BP, HP; i.p., serotonin 0.79 mg/kg, GR38032F 0.1 mg/kg, data not shown
  effect on RR, VE, mean BP, HP, or PS apnea index: had no effect on sleep, cardiovascular variables, RR, or VE
RR, VE, mean BP, HP; serotonin 0.79 mg/kg i.p.
  beat-to-beat heart rate and BP variability (coefficients of variation): unaffected
RR, VE, mean BP, HP; serotonin 0.79 mg/kg i.p., 6 hour recording period
  changes in heart rate or mean BP: did not elicit changes in either heart rate or mean BP
[3]; i.p., serotonin 0.79 mg/kg, GR38032F 0.1 mg/kg
  spontaneous apnea index during NREM sleep: not affected by any drug treatment
[3]; serotonin 0.79 mg/kg i.p.
  increase of spontaneous apnea expression during REM sleep compared to control: > 250%
sleep/wake architecture; 6 hours of polygraphic recording
  effect on sleep architecture: had no effect on sleep architecture
sleep/wake architecture; [4]
  % NREM: 59.9 ± 3.3%
  % REM: 6.5 ± 1.1%
  % Wakefulness: 30.2 ± 3.2%

## Cn1c(=O)c2[nH]cnc2n(C)c1=O [theophylline]
Sleep apnea syndrome
  effect in patients with sleep apnea: may benefit patients with central apnea but appears to be of no use in adult patients with obstructive apnea

## medroxyprogesterone
Sleep apnea syndrome
  effect in patients with sleep apnea: no consistent benefit in OSAS
